Key:
[1] = target: BDNF/NT-3 growth factors receptor (Homo sapiens, UniProt Q16620); experiment: Binding affinity to TRKB (unknown origin) assessed as dissociation constant by KINOMEscan assay
[2] = target: T1, Tyrosine-protein kinase JAK2 (Homo sapiens, UniProt O60674); experiment: Inhibition of JAK2 (unknown origin) by Z-LYTE Kinase assay
[3] = target: T2, Proto-oncogene tyrosine-protein kinase Src (Homo sapiens, UniProt P12931); experiment: Inhibition of SRC (unknown origin) by Z-LYTE Kinase assay
T2 sequence (P12931 2-536 limits assumed): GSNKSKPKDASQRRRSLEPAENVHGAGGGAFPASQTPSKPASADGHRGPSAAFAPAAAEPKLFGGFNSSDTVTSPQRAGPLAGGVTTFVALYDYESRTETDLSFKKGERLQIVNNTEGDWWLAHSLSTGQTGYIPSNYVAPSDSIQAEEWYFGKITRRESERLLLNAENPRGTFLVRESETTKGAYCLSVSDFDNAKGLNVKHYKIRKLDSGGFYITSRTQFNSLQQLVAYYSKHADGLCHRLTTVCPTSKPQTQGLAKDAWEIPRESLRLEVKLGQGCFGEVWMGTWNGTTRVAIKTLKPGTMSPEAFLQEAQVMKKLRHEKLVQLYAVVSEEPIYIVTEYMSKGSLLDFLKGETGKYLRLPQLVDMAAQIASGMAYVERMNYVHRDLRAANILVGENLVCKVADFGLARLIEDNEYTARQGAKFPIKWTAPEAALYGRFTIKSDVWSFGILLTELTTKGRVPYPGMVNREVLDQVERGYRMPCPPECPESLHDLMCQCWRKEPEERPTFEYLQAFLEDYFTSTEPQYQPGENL

[4] = tested on: MDA-MB-231; experiment: Cytotoxicity against human MDA-MB-231 cells assessed as cell viability at 100 uM incubated for 72 hrs by resazurin based analysis relative to control; type: functional; conditions: read-out: Activity
[5] = tested on: LS174T; experiment: Cytotoxicity against human LS174T cells assessed as cell viability at 100 uM incubated for 72 hrs by resazurin based analysis relative to control; type: functional; conditions: read-out: Activity
[6] = Metabolic stability in human liver microsome assessed as half life measured up to 60 mins by HPLC-MS/MS analysis; type: ADME; conditions: liver microsomes
[7] = Metabolic stability in human liver microsome assessed as intrinsic clearance measured up to 60 mins by HPLC-MS/MS analysis; type: ADME; conditions: liver microsomes, read-out: CLH
[8] = Plasma protein binding in human; type: ADME, cell-free; conditions: read-out: PPB (converted)
[9] = Apparent permeability of compound across apical to basolateral side in human Caco-2 cells; type: ADME, cell-based
[10] = target: Tyrosine-protein kinase ABL1 (Homo sapiens, UniProt P00519); experiment: Binding affinity to ABL1 (unknown origin) assessed as dissociation constant
Sequence of Tyrosine-protein kinase ABL1 (P00519 whole entry): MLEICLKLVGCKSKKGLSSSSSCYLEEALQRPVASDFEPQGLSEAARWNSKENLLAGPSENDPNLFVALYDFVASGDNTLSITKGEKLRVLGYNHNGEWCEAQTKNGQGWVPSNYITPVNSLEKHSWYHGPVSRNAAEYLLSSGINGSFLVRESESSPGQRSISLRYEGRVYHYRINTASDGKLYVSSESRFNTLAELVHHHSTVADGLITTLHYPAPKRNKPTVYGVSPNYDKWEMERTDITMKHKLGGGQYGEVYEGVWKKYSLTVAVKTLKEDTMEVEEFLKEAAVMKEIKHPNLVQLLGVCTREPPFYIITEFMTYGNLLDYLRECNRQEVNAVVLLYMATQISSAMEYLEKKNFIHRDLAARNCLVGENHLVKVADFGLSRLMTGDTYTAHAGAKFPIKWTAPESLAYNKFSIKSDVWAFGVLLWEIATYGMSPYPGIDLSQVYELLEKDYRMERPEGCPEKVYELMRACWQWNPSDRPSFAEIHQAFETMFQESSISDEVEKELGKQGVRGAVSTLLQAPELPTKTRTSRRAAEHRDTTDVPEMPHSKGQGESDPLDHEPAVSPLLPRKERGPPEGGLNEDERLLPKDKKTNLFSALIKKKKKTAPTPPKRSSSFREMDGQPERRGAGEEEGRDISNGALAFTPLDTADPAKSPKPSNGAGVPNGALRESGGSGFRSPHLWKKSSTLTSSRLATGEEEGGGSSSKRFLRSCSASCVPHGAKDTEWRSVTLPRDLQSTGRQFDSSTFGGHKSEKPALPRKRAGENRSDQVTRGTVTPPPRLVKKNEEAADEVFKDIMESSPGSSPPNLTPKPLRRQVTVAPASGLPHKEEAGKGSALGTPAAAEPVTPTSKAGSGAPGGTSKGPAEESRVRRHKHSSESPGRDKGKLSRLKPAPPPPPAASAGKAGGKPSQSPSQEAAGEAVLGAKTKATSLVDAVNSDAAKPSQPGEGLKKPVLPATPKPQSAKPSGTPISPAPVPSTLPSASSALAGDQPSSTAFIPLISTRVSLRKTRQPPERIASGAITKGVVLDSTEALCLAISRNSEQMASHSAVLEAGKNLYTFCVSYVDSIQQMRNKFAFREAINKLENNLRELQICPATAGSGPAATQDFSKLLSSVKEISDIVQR

[11] = target: T1, Tyrosine-protein kinase JAK2; experiment: Binding affinity to JAK2 (unknown origin) assessed as dissociation constant
[12] = target: T2, Proto-oncogene tyrosine-protein kinase Src; experiment: Binding affinity to SRC (unknown origin) assessed as dissociation constant
[13] = target: T3, High affinity nerve growth factor receptor (Homo sapiens, UniProt P04629); experiment: Binding affinity to TRKA (unknown origin) assessed as dissociation constant
T3 sequence (P04629 whole entry): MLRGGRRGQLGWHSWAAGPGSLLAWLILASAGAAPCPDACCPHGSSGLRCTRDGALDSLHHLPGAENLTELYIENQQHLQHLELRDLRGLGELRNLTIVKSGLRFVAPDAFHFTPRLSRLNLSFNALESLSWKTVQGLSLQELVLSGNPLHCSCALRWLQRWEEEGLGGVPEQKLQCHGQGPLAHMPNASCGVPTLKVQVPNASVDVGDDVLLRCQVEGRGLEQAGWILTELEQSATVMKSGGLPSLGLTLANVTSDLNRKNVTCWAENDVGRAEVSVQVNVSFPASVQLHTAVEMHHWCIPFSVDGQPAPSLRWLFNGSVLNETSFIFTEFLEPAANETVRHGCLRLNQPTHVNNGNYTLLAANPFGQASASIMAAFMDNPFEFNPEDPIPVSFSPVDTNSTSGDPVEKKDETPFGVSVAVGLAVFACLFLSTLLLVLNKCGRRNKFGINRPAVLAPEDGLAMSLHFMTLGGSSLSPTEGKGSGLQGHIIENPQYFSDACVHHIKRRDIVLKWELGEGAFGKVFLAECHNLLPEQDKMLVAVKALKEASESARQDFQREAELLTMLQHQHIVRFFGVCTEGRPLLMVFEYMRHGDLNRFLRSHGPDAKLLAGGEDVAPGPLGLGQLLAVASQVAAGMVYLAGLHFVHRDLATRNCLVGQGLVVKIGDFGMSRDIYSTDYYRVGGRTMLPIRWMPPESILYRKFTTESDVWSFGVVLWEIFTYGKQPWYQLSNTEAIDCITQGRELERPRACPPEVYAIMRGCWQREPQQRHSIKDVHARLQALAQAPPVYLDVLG

[14] = target: T4, Serine/threonine-protein kinase Nek2 (Homo sapiens, UniProt P51955); experiment: Inhibition of NEK2 (unknown origin)
T4 sequence (P51955 whole entry): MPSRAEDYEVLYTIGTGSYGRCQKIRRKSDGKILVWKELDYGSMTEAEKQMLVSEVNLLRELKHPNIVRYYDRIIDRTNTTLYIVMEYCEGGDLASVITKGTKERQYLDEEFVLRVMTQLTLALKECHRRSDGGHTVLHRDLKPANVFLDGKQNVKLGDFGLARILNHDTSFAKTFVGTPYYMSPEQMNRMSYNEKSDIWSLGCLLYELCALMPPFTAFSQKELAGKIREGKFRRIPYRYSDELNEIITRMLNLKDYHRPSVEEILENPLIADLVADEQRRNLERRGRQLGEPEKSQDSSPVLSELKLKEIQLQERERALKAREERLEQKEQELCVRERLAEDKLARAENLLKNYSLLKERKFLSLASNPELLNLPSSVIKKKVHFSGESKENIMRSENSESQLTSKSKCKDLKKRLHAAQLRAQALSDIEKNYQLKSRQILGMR

[15] = target: T5, Receptor-type tyrosine-protein kinase FLT3 (Homo sapiens, UniProt P36888); experiment: Inhibition of FLT3 (unknown origin)
T5 sequence (P36888 whole entry): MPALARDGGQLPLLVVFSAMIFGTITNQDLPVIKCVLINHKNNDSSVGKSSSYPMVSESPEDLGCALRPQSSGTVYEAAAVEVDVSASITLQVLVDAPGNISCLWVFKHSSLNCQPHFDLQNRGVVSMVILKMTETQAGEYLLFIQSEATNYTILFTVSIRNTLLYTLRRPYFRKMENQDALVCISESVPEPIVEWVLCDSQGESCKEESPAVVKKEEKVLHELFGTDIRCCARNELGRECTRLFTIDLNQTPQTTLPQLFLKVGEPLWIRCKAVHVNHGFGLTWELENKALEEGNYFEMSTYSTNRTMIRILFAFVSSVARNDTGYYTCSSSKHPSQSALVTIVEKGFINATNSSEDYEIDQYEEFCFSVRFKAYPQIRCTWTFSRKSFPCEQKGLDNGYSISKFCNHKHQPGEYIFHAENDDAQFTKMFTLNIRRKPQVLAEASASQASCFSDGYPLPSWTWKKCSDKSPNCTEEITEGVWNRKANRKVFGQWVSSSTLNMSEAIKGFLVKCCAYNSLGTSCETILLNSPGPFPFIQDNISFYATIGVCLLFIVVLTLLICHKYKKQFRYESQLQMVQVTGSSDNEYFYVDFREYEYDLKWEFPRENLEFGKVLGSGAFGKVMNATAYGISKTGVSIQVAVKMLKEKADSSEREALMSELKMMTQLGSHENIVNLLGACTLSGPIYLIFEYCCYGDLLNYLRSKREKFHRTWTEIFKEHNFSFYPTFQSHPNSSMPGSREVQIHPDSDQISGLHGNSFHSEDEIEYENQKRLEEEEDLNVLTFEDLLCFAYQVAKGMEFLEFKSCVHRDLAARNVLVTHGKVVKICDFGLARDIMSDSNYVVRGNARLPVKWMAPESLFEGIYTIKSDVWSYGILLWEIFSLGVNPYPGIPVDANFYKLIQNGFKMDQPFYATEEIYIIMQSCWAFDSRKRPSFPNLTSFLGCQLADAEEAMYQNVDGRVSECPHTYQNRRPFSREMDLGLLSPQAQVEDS

[16] = target: MAP kinase-activated protein kinase 2 (Homo sapiens, UniProt P49137); experiment: Inhibition of MK2 (unknown origin)
Sequence of MAP kinase-activated protein kinase 2 (P49137 whole entry): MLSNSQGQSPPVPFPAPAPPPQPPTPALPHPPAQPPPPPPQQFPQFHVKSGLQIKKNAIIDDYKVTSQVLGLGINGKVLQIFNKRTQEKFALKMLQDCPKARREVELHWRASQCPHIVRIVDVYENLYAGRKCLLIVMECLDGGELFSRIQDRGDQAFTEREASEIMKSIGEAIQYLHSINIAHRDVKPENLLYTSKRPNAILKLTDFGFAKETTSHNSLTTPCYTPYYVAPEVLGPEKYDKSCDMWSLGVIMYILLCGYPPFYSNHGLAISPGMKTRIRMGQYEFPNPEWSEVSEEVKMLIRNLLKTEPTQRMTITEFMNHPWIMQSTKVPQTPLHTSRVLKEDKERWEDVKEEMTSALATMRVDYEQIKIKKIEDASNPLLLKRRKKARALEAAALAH

[17] = target: T3, High affinity nerve growth factor receptor; experiment: Binding affinity to TRKA (unknown origin) assessed as dissociation constant by KINOMEscan assay
[18] = tested on: LS174T; experiment: Cytotoxicity against human LS174T cells assessed as effect on cell viability incubated for 72 hrs by resazurin based analysis
[19] = tested on: MDA-MB-231; experiment: Cytotoxicity against human MDA-MB-231 cells assessed as effect on cell viability incubated for 72 hrs by resazurin based analysis; conditions: MDA-MB-231, 72 h
[20] = tested on: KM12; experiment: cells; conditions: Homo sapiens, KM12, 72 h
Description: Cytotoxicity against human KM12 cells assessed as inhibition of cell viability incubated for 72 hrs by resazurin based analysis

T1 sequence (O60674 whole entry): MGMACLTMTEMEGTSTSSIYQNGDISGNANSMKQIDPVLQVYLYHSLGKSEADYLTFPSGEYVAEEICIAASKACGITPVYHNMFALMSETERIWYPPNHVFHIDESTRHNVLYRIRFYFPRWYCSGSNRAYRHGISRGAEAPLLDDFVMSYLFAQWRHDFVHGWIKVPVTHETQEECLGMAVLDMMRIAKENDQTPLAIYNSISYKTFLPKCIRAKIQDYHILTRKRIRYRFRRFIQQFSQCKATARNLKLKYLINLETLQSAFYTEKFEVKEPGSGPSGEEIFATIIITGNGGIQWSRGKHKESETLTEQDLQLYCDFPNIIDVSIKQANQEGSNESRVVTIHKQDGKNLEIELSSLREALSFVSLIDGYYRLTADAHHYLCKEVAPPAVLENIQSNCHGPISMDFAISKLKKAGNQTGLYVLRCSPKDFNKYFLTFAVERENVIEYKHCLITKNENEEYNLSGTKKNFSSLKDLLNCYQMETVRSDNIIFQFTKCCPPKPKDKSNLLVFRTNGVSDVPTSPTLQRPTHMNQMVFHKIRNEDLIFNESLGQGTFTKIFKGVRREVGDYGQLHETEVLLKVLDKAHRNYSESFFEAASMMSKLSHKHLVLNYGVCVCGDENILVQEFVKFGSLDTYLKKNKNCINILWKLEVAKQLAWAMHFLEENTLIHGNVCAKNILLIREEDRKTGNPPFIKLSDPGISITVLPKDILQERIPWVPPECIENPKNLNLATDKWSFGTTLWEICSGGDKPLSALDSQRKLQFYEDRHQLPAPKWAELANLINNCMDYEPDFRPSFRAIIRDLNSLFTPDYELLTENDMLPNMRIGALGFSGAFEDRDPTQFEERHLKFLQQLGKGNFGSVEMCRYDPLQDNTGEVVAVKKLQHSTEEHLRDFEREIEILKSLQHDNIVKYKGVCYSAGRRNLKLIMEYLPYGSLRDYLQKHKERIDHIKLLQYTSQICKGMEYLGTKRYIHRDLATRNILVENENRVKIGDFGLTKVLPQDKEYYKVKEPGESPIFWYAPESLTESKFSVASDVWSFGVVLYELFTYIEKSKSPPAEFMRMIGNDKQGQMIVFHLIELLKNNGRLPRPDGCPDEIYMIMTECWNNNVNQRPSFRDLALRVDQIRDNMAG
Sequence of BDNF/NT-3 growth factors receptor (Q16620 whole entry): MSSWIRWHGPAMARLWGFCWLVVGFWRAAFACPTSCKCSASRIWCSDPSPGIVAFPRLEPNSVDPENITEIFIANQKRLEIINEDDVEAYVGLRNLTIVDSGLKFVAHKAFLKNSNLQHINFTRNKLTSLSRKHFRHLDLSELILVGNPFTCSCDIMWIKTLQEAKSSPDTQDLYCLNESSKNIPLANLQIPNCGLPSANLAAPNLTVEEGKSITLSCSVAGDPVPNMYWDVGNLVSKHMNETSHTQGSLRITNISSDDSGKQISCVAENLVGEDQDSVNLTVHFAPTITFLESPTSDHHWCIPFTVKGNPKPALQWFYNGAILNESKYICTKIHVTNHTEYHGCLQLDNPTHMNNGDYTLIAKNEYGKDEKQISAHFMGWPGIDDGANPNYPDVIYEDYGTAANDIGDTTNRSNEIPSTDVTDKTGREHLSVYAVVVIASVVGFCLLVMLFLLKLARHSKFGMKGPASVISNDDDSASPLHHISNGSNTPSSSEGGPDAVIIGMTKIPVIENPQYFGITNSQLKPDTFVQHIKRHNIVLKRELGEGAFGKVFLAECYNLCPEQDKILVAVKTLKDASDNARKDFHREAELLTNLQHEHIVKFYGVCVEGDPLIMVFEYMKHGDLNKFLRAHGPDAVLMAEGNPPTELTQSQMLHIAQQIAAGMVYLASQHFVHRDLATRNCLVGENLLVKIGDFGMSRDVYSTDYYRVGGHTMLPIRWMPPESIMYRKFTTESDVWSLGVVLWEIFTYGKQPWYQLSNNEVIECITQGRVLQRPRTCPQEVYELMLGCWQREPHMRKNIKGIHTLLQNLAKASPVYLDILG

| Kd [1] | IC50 [2] | IC50 [3] | half-life [6] | microsomal CLint [7] | fraction unbound [8] | Papp A→B [9] | Kd [10] | Kd [11] | Kd [12] | Kd [13] | IC50 [14] | IC50 [15] | IC50 [16] | Kd [17] | IC50 [20] | Compound | viability at 100 µM [4] | viability at 100 µM [5] | IC50 [18] | IC50 [19] |
| --- | --- | --- | --- | --- | --- | --- | --- | --- | --- | --- | --- | --- | --- | --- | --- | --- | --- | --- | --- | --- |
| 180 nM | 663 nM | 4520 nM |  |  |  |  |  |  |  |  |  |  |  |  |  | CC(Nc1nc(-c2cccnc2)cnc1N)c1ccccc1 (racemic) | 43% | 83% |  |  |
|  | 177 nM |  | 1.75 h | 66.2 µL/min/mg | 0.043 | 8 ×10⁻⁶ cm/s |  |  |  |  |  |  |  |  |  | CC(=O)Nc1cccc(-c2cnc(N)c(N[C@H](C)c3ccccc3)n2)c1 |  |  |  |  |
| 150 nM |  |  | 0.653 h | 177 µL/min/mg | 0.004 |  | 5300 nM | 1100 nM | 640 nM | 36 nM | 870 nM | 70 nM | 750 nM | 52 nM | < 300 nM | CC(Nc1nc(-c2cccc(N(C)C)c2)cnc1N)c1ccccc1 (racemic) |  |  | > 10000 nM | > 10000 nM |

From ChEMBL document CHEMBL6134888, “Challenging the "Undruggable"─Targeting STAT3 but Identifying Potent TrkA-Targeted Inhibitors” (J Med Chem, 2025)
